pIC50: −log10 of the molar value. Where a SMILES comes first, the peptide text is derived from it.
Columns and labels:
[1] = tested on: Human Red Blood Cells; experiment: Hemolytic assay; type: cell-based; conditions: red blood cells
Method: The toxicity of invention peptides can be assessed using a hemolytic assay in which the ability of the peptides to lyse human red blood cells is assessed (Zhang et al. (1999) Biochemistry 38:8102-8111; and Examples section).
Hemolytic activity of invention peptides was tested against human red blood cells. Freshly collected human blood treated with heparin was centrifuged to remove the buffy coat, and the erythrocytes thereby obtained were washed three times in saline (0.85% NaCl). Serial dilutions of the peptides in saline were prepared in round-bottomed microtiter plates using total volumes of 100 μl. Red blood cells were diluted with saline to 1/25 of a packed cell volume, and 50 μl of cells were added to each well. Plates, while rocking, were incubated at 37° C., and the concentration of the peptide required for lysis after 4 h was taken as the minimal hemolytic concentration.

[2] = tested on: E. coli 0111:B4 LPS induced production of TNF-α in RAW macrophages; experiment: Reduction of LPS-induced TNF-α in RAW 264.7 macrophages (ELISA); type: cell-based, murine; conditions: for Inhibition of TNF-α (%): peptide 20 μg/ml, LPS 100 ng/ml, RAW 264.7, 6 hours
Method: (§1) The ability of invention peptides to reduce LPS-induced tumor necrosis factor (TNF) production was tested in an in vitro assay. The murine macrophage cell line RAW 264.7 was obtained from American Type Culture Collection (Manassas, Va.) and grown in DMEM medium supplemented with 10% fetal calf serum. The cells were plated at a density of 10^6 cells/well in 24 well plates, incubated overnight, then washed with fresh medium. E. coli 0111 :B4 (100 ng/ml) was added at time 0 to RAW macrophages. Invention peptides […]/m were added at time 0, 30 and 60 minutes and the cells were stimulated for 6 hours. Levels of TNF and interleukin-6 (IL-6) were measured after 6 hours.

[3] = tested on: E. coli 0111:B4 LPS induced production of IL-6 in RAW macrophages; experiment: Reduction of LPS-induced IL-6 in RAW 264.7 macrophages (ELISA); type: cell-based, murine; conditions: for Inhibition of IL-6 (%): peptide 20 μg/ml, LPS 100 ng/ml, RAW 264.7, 6 hours
Method: as §1

[4] = tested on: P. aeruginosa M2; experiment: P. aeruginosa infection in neutropenic mouse model; type: in vivo; conditions: neutropenic CD-1 mice; for Mean Time to Death: 200 μg peptide intraperitoneally 30 min after infection; for Survival (%), P. aeruginosa infection: 200 μg peptide intraperitoneally, groups of 5 mice, assessed 24 to 72 hours
Method: Invention peptides were assayed for their ability to protect against P. aeruginosa infection in a neutropenic mouse mode. Female CD-1 mice, made neutropenic by three injections of cyclophosphamide (see Gough et al., (1996) Infect. Immun. 64:4922-4927) were injected intraperitoneally with a 100% lethal dose of P. aeruginosa M2 (approximately 200 organisms). Thirty minutes later, mice were injected intraperitoneally with invention peptides (200 μg/100 μl) Survival was assessed 24 to 72 hours later.

[5] = LPS-induced endotoxemia in galactosamine-sensitized mice; type: in vivo; conditions: 200 μg peptide intraperitoneally, groups of 10 mice, up to 24 h
Method: Bacterial endotoxin (LPS) is highly toxic and can cause high mortality in both humans and animals when released during Gram-negative bacterial infection. Galactosamine-treated mice exposed to moderate does of endotoxin typically die from endotoxic shock within 17 hours following exposure. Invention peptides can be tested for their ability to protect mice against endotoxin-induced death (see Examples section). The anti-endotoxic activity of invention peptides also can be tested in an in vitro assay using a macrophage cell line (Gough et al. (1996) Infect. Immun. 64:4922-4927; and Examples section).
The ability of invention peptides to protect against LPS-induced endotoxemia was assessed in vivo. Mice (8-10 weeks old) were injected intraperitoneally with […] D-galactosamine (Dgal) to sensitize them to LPS according to the method of Galanos (Galanos et al. (1979) Proc. Natl. Acad. Sci., USA, 76:5939-5943). Endotoxic shock was induces by intraperitoneal injections of 3 μg/mL E. coli 111 :B4 LPS in phosphate-buffered saline (PBS). Invention peptides (200 μg/100 μl sterile water) were injected intraperitoneally at a separate site within 10 min of LPS injection, and survival was monitored up to 24 h following injection.

[6] = Dansyl polymyxin B displacement assay (binding affinity for LPS); parameters: species or system Escherichia coli; conditions: for Imax: maximal displacement, 100% = that observed with polymyxin B; for pIC50: peptide concentration reducing bound dansyl polymyxin B (10 μM) by 50% of maximal displacement, read-out: I50
Method: To determine whether invention peptides are able to interact with the LPS of Gram-negative bacterial outer membrane, the binding affinity of peptide for LPS was determined using a dansyl polymyxin B displacement assay (Moore et al. (1986) Antimicrobial Agents Chemother. 29:496-500). The assay uses dansyl polymyxin, a cationic probe that is highly fluorescent only when bound and LPS isolated from E. coli. UB1005. […] Maximal displacement of LPS was expressed as a percentage where 100% displacement of dansyl polymyxin B was taken as that observed with polymyxin B.

[7] = tested on: intact cells of E. coli UB1005; experiment: NPN uptake assay, outer membrane permeabilization; type: cell-based, Escherichia coli; conditions: peptide concentration leading to 50% of maximal increase in NPN uptake
Method: The outer membrane permeabilization activity of invention peptides was determined by the 1-N-phenylnapthylamine (NPN) uptake assay of Loh et al. ((1984) Antimicor. Agents Chemother. 26:546-551), using intact cells of E. coli UB1005.
(§2) The cytoplasmic membrane depolarization activity of the peptides was determined (Wu and Hancock (1999) J. Biol. Chem. 274:29-35) using the membrane potential sensitive dye 3,3-dipropylthiacarbocyanine diSC35 (28) and E. coli DC2. Bacterial cells in mid-log phase were centrifuged, washed in 5 mM HEPES, pH 7.8, and resuspended in the same buffer to an OD600 of 0.05. A stock solution of diSC35 was added to a final concentration of 0.4 μM and quenching was allowed to occur at room temperature for 20-30 min. Then KCl was added to the cell suspension to a final concentration of 100 mM to equilibrate the cytoplasmic and external K^+ concentrations. A 2-mL cell suspension was placed in a 1 cm cuvette and the desired concentration of tested peptide was added. Changes in fluorescence due to the disruption of the membrane potential in the cytoplasmic membrane were continuously recorded using a Perkin-Elmer model 650-10S spectrofluorimeter at an excitation wavelength of 622 nm and an emission wavelength of 670 nm. The concentration of peptide leading to a 50% of maximal increase in NPN uptake was recorded as the P50.
Therefore, an increase in fluorescence in the presence of a peptide indicates the ability of peptide to permeabilize the bacterial outer membrane.

[8] = tested on: E. coli DC2; experiment: Cytoplasmic membrane depolarization, diSC35 assay; type: cell-based, Escherichia coli; conditions: 0.25 μg/ml (1×MIC)
Method: The arrowhead indicates the time at which 0.25 μg/ml peptide was added. PV5: SEQ ID NO:11; PV7: SEQ ID NO:4; and PV8: SEQ ID NO:3.
as §2

Compound	hemolytic activity [1]	Inhibition of TNF-α (%) [2] [%]	Inhibition of IL-6 (%) [3] [%]	Mean Time to Death [4] [h]	Survival (%), P. aeruginosa infection [4] [%]	Survival (%), LPS-Endotoxemia [5] [%]	Imax [6] [%]	pIC50 [6]	P50 [7] [µg/mL]	inhibition of TNF-α production ([2]; 20 μg/ml)	inhibition of IL-6 production ([3]; 20 μg/ml)	diSC35 dye release from cells [8]
CC(C)[C@@H]1NC(=O)[C@H](CCCNC(=N)N)NC(=O)[C@H](Cc2ccccc2)NC(=O)[C@@H](NC(=O)[C@H](Cc2c[nH]c3ccccc23)NC(=O)[C@H](CCCNC(=N)N)NC(=O)[C@@H](N)Cc2ccccc2)CSSC[C@@H](C(=O)N[C@@H](CCCNC(=N)N)C(N)=O)NC(=O)[C@H](CCCCN)NC(=O)[C@H](Cc2ccc(O)cc2)NC(=O)[C@H](CCCNC(=N)N)NC(=O)[C@@H]2CSSC[C@H](NC1=O)C(=O)N[C@@H](Cc1ccc(O)cc1)C(=O)N[C@@H](CCCCN)C(=O)NCC(=O)N[C@@H](CCCNC(=N)N)C(=O)N2 [SEQ ID NO:3, FRWCFRVCYKGRCRYKCR] (HELM PEPTIDE1{F.R.W.C.F.R.V.C.Y.K.G.R.C.R.Y.K.C.R.[am]}$PEPTIDE1,PEPTIDE1,4:R3-17:R3|PEPTIDE1,PEPTIDE1,8:R3-13:R3$$$V2.0)	show hemolytic activity	55 ± 5	70 ± 6	>72	60	20	93	5.31	3.9			
CC(C)[C@@H]1NC(=O)[C@H](CCCNC(=N)N)NC(=O)[C@H](Cc2ccccc2)NC(=O)[C@@H](NC(=O)[C@H](Cc2c[nH]c3ccccc23)NC(=O)[C@H](CCCNC(=N)N)NC(=O)[C@@H](N)CCCNC(=N)N)CSSC[C@@H](C(=O)N[C@@H](CCCNC(=N)N)C(N)=O)NC(=O)[C@H](CCCCN)NC(=O)[C@H](Cc2ccc(O)cc2)NC(=O)[C@H](CCCNC(=N)N)NC(=O)[C@@H]2CSSC[C@H](NC1=O)C(=O)N[C@@H](Cc1ccc(O)cc1)C(=O)N[C@@H](CCCCN)C(=O)NCC(=O)N[C@@H](Cc1ccccc1)C(=O)N2 [SEQ ID NO:4, RRWCFRVCYKGFCRYKCR] (HELM PEPTIDE1{R.R.W.C.F.R.V.C.Y.K.G.F.C.R.Y.K.C.R.[am]}$PEPTIDE1,PEPTIDE1,4:R3-17:R3|PEPTIDE1,PEPTIDE1,8:R3-13:R3$$$V2.0)	show hemolytic activity	61 ± 5	77 ± 6	61	40	40	76	5.24	4.1			
CC(C)[C@@H]1NC(=O)[C@H](CCCNC(=N)N)NC(=O)[C@H](Cc2ccccc2)NC(=O)[C@@H](NC(=O)[C@H](Cc2c[nH]c3ccccc23)NC(=O)[C@H](CCCNC(=N)N)NC(=O)[C@@H](N)CCCNC(=N)N)CSSC[C@@H](C(=O)N[C@@H](CCCNC(=N)N)C(N)=O)NC(=O)[C@H](CCCCN)NC(=O)[C@H](CCCNC(=N)N)NC(=O)[C@H](Cc2ccc(O)cc2)NC(=O)[C@@H]2CSSC[C@H](NC1=O)C(=O)N[C@@H](Cc1ccc(O)cc1)C(=O)N[C@@H](CCCNC(=N)N)C(=O)NCC(=O)N[C@@H](CCCNC(=N)N)C(=O)N[C@@H](Cc1ccccc1)C(=O)N2 [SEQ ID NO:11, RRWCFRVCYRGRFCYRKCR] (HELM PEPTIDE1{R.R.W.C.F.R.V.C.Y.R.G.R.F.C.Y.R.K.C.R.[am]}$PEPTIDE1,PEPTIDE1,4:R3-18:R3|PEPTIDE1,PEPTIDE1,8:R3-14:R3$$$V2.0)	show hemolytic activity	90 ± 6	91 ± 4	57	40	50	87	5.52	3.7	best inhibitor	best inhibitor	unable to cause a significant level of dye release
Polymyxin B [reference compound]							100	5.25				

From patent US6337317B1, “Antimicrobial peptides and methods of use thereof” (priority 2000, dated 2002)
